Results from ChEMBL document CHEMBL5608181, “Discovery of indazole inhibitors for heat shock protein 90 as anti-cancer agents” (Eur J Med Chem, 2024).
The source made the active and inactive calls. No cut-off for these calls is given here.

Legend:
Homo sapiens = species: Homo sapiens; test: Inhibition of N-terminal HSP90 (unknown origin) at 10 uM by AlphaLISA assay
BT-474 = test: Antiproliferative activity against human BT-474 cells assessed as inhibition of cell viability at 10 uM measured after 72 hrs by CellTiter 96 Aqueous One Solution Cell Proliferation Assay relative to control; format: functional

SMILES | inhibition (Homo sapiens) | inhibition at 10 µM (BT-474) [%]
CC(C)c1cc(C(=O)N2Cc3ccc(CN4CCN(C)CC4)cc3C2)c(O)cc1O | Active | –
CO[C@@H]1[C@@H](OC(N)=O)[C@@H](O)[C@H](Oc2ccc3c(O)c(NC(=O)c4ccc(O)c(CC=C(C)C)c4)c(=O)oc3c2C)OC1(C)C | inactive | –
COCCCn1nc(NC(=O)c2ccc3c(c2OC)C=CC(C)(C)O3)c2ccccc21 | – | > 50
